# From PMC8725448 (Journal of Cannabis Research, 2022)
# “And” between values parts separate entries of the source, which are not always exact repeats. Equal entries are not always repeated. Where two headings read alike, the source gives them in different places.
# Experiments:
# [1] = tested on: hyperthermia-induced seizures in Scn1a^+/- mice; conditions: cited from earlier work
# [2] = molecular target: T1, human GPR55 (Homo sapiens, UniProt Q9Y2T6); design: method as in Anderson et al. 2021a, 2021b and unpublished data; conditions: at therapeutically relevant concentrations; ref Anderson et al. 2021a, 2021b and unpublished data; cited from earlier work
# T1 construct: expressed in transfected cells; host or cells: HEK293
# [3] = design: method as in Anderson et al. 2019b; conditions: CBGA; ref Anderson et al. 2019b; cited from earlier work
# [4] = tested on: maximal electroshock (MES) seizure threshold; design: method as in Anderson et al. 2021b; conditions: ref Anderson et al. 2021b; cited from earlier work
# [5] = molecular target: T2, CaV3.1 (Homo sapiens, UniProt O43497); design: method as in Anderson et al. 2021a, 2021b and unpublished data; conditions: at therapeutically relevant concentrations; ref Anderson et al. 2021a, 2021b and unpublished data; cited from earlier work
# T2 construct: expressed in transfected cells; host or cells: Flp-In T-REx HEK (tetracycline-induced)
# [6] = tested on: control HEK293 cells; assay: GPR55 negative control pERK experiment; format: cell-based, human; conditions: 10 μM; control HEK293 cells without GPR55
# Description: ERK phosphorylation (pERK) was detected using the AlphaScreen® SureFire® Phospho-ERK1/2 assay (Perkin Elmer; Waltham, USA) as previously described (Anderson et al. [2021b]). Briefly, the human embryonic kidney (HEK) 293 cells stably expressing human GPR55 in L-15 media were plated (110,000/well) into a Corning CellBIND (Corning Inc; Corning, USA) clear, flat-bottomed 96-well plate and incubated 20–24 h at 37°C in ambient CO2. Media was aspirated, 50 μL phenol red-free DMEM/F-12 was added to each well and incubated for 2–3 h at 37°C in a humidified 5% CO2 atmosphere. Compounds (10 μM in phenol red-free DMEM/F-12) were added and incubated for 20 min before media was aspirated and lysis buffer was added. Lysates (5 μL) were incubated with reaction mixture (7 μL) for 3.5 h at room temperature. A CLARIOstar plate reader (BMG Labtech; Offenburg, GER) was used to take fluorescence readings over 740 msec (excitation 680 nm, emission 520–620 nm). Fluorescence readings were normalized to those of 4 μM LPI, the endogenous GPR55 agonist. No effect of LPI (10 μM) is observed in control HEK293 cells (Supplemental Fig. 1). Final DMSO concentrations were ≤ 0.2%. […]
# (LPI). Data are expressed as mean ± SEM normalized to 100 nM phorbol 12-myrisate 13-acetate (PMA), […]
# [7] = ref Anderson et al. 2019b, 2021a, 2021b
# T1 sequence (Q9Y2T6 whole entry): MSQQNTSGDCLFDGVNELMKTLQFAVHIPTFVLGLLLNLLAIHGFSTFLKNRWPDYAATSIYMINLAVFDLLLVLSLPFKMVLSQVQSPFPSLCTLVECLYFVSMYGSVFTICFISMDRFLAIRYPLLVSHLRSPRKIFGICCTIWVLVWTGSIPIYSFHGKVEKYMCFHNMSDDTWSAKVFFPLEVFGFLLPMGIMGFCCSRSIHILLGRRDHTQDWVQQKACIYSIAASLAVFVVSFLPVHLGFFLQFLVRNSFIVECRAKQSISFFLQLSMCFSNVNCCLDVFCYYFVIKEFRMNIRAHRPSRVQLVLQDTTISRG
# T2 sequence (O43497 whole entry): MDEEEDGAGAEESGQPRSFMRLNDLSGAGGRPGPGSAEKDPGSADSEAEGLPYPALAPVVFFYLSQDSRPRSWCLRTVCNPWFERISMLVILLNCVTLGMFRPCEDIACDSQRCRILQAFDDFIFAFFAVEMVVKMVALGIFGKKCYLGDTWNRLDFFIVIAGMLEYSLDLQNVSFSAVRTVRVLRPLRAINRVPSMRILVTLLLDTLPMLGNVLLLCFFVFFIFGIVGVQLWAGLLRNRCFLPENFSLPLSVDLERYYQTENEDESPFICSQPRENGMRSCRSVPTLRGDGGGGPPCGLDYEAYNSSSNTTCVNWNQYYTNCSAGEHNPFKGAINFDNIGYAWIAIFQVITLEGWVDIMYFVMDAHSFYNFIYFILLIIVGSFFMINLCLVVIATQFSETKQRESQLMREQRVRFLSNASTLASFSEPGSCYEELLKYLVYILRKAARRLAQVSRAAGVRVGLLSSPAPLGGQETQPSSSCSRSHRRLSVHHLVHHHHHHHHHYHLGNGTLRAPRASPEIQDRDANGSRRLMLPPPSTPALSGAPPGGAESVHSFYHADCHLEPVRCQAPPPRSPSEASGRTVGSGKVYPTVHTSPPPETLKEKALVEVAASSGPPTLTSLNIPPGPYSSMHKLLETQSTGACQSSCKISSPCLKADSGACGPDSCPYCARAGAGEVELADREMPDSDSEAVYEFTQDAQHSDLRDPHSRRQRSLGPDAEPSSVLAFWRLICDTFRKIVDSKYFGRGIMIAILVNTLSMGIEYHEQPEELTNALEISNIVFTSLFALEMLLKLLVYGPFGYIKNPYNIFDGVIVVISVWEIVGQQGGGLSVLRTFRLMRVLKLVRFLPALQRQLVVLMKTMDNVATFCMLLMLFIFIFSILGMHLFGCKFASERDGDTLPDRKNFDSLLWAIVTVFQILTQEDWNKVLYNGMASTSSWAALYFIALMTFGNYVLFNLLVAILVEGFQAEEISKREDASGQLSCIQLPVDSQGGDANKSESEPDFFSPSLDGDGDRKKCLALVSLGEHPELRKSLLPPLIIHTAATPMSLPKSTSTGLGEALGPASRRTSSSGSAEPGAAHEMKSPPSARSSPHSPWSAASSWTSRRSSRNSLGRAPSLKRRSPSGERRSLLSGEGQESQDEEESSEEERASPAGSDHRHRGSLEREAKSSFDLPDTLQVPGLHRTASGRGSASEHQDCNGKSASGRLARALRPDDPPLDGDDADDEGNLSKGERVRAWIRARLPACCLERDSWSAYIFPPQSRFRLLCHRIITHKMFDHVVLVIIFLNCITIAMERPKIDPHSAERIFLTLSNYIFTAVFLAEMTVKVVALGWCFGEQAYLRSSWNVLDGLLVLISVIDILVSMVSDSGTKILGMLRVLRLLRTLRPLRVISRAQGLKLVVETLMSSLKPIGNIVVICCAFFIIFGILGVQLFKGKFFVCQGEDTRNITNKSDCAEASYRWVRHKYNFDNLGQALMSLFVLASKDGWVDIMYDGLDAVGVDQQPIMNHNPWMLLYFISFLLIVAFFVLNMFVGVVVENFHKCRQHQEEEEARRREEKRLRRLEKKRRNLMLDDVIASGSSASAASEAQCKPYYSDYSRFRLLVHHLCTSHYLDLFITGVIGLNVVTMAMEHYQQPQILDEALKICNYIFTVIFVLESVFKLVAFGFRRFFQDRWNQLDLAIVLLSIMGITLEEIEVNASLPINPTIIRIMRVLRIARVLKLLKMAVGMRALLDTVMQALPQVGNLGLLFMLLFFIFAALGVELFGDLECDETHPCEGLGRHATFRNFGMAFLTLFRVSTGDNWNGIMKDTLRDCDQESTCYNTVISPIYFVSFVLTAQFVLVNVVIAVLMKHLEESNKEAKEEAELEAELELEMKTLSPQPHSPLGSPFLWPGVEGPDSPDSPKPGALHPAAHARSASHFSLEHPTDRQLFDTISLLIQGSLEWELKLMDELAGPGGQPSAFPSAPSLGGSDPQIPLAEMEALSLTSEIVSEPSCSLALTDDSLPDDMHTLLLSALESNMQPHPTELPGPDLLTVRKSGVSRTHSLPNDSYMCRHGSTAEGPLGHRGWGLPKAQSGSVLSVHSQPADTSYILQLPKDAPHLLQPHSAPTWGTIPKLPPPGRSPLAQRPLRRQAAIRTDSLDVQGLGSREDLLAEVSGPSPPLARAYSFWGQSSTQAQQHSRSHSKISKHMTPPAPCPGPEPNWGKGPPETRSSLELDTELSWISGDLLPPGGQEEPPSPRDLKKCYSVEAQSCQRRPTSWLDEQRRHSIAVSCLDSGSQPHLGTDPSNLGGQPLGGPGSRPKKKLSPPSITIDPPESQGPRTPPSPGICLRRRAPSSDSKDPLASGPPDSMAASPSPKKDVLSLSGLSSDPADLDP
compound,measurement,setting,value
CCCCCc1cc2c(c(O)c1C(=O)O)C=CC(C)(CCC=C(C)C)O2 (centres unmarked) [CBCA],efficacy against hyperthermia-induced seizures,[1]; [7],anticonvulsant
"C=C(C)[C@@H]1CCC(C)=C[C@H]1c1c(O)cc(CCCCC)cc1O [CBD, cannabidiol]",increase of temperature threshold,"[1]; 100 mg/kg, ref Anderson et al. 2019a, 2020, Kaplan et al. 2017",approximately 0.5 °C
"C=C(C)[C@@H]1CCC(C)=C[C@H]1c1c(O)cc(CCCCC)c(C(=O)O)c1O [CBDA, cannabidiolic acid]",efficacy against hyperthermia-induced seizures,[1]; [7],anticonvulsant
C=C(C)[C@@H]1CCC(C)=C[C@H]1c1c(O)cc(CCC)c(C(=O)O)c1O [CBDVA],efficacy against hyperthermia-induced seizures,[1]; [7],anticonvulsant
"CCCCCc1cc(O)c(C/C=C(\C)CCC=C(C)C)c(O)c1 [CBG, cannabigerol]",efficacy against hyperthermia-induced seizures,[1]; [7],not effective
"CCCCCc1cc(O)c(C/C=C(\C)CCC=C(C)C)c(O)c1C(=O)O [CBGA, Cannabigerolic acid]",activity at GPR55,[2],inhibition
same,brain penetration / brain uptake,[3],2% and ~ 2%
same,efficacy against hyperthermia-induced seizures,"[1]; 30 mg/kg, ref Anderson et al. 2021b",effective
same,increase of threshold temperature,"[1]; 100 mg/kg, ref Anderson et al. 2021b",~1 °C
same,efficacy against hyperthermia-induced seizures,[1]; [7],anticonvulsant properties
same,anticonvulsant properties in MES seizure threshold test,[4],anticonvulsant properties
same,activity at Cav3.1 channels,[5],inhibition
CCCc1cc(O)c(C/C=C(\C)CCC=C(C)C)c(O)c1C(=O)O [CBGVA],efficacy against hyperthermia-induced seizures,[1]; [7],anticonvulsant
Lysophosphatidylinositol [LPI],effect on ERK phosphorylation,[6],No effect
